20 compounds from PubChem BioAssay AID328 (DTP/NCI, 2004) can be followed below.

Several values for one entry are separate records, joined by “and”; a condition that tells them apart may be missing. Equal entries are not always repeated. Toxic doses and inconclusive results are not listed.

The subject of the experiment is BDF1 mice, P388 leukemia ip, median survival T/C. Put plainly: NCI In Vivo Anticancer Drug Screen. Data for tumor model P388 Leukemia (intraperitoneal) in B6D2F1 (BDF1) mice. To be noted: endpoint: median survival time, higher = longer survival. The essentials:
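Reported as T/C, where T is the survival measurement in dosed animals and C the same measurement in vehicle controls.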

The mark [1] stands for this setting: dose: 50.0 mg/kg/injection, schedule: Q01DX009 (ip), vehicle: saline with Tween-80.
Setting [2] is: dose: 100.0 mg/kg/injection, schedule: Q01DX009 (ip), vehicle: saline with Tween-80.
Setting [3] is: dose: 200.0 mg/kg/injection, schedule: Q01DX009 (ip), vehicle: saline with Tween-80.
The mark [4] stands for this setting: dose: 100.0 mg/kg/injection, schedule: Q04DX003 (ip), vehicle: saline with Tween-80.
Setting [5] is: dose: 200.0 mg/kg/injection, schedule: Q04DX003 (ip), vehicle: saline with Tween-80.
Where [6] appears, read: dose: 400.0 mg/kg/injection, schedule: Q04DX003 (ip), vehicle: saline with Tween-80.
The mark [7] stands for this setting: dose: 100.0 mg/kg/injection, schedule: Q01DX009 (ip), vehicle: Klucel (hydroxypropylcellulose) (HPC).
The mark [8] stands for this setting: dose: 100.0 mg/kg/injection, schedule: Q04DX003 (ip), vehicle: Klucel (hydroxypropylcellulose) (HPC).
The mark [9] stands for this setting: dose: 200.0 mg/kg/injection, schedule: Q01DX009 (ip), vehicle: Klucel (hydroxypropylcellulose) (HPC).
[10] abbreviates: dose: 200.0 mg/kg/injection, schedule: Q04DX003 (ip), vehicle: Klucel (hydroxypropylcellulose) (HPC).
Where [11] appears, read: dose: 400.0 mg/kg/injection, schedule: Q04DX003 (ip), vehicle: Klucel (hydroxypropylcellulose) (HPC).
The mark [12] stands for this setting: dose: 100.0 mg/kg/injection, schedule: Q01DX001 (ip), vehicle: Klucel (hydroxypropylcellulose) (HPC).
Setting [13] is: dose: 400.0 mg/kg/injection, schedule: Q01DX001 (ip), vehicle: Klucel (hydroxypropylcellulose) (HPC).
[14] abbreviates: dose: 12.5 mg/kg/injection, schedule: Q01DX009 (ip), vehicle: saline with Tween-80.
Where [15] appears, read: dose: 25.0 mg/kg/injection, schedule: Q01DX009 (ip), vehicle: saline with Tween-80.
Setting [16] is: dose: 3.0 mg/kg/injection, schedule: Q01DX009 (ip), vehicle: Klucel (hydroxypropylcellulose) (HPC).
Where [17] appears, read: dose: 6.0 mg/kg/injection, schedule: Q01DX009 (ip), vehicle: Klucel (hydroxypropylcellulose) (HPC).
Setting [18] is: dose: 6.25 mg/kg/injection, schedule: Q04DX003 (ip), vehicle: Klucel (hydroxypropylcellulose) (HPC).
Setting [19] is: dose: 12.5 mg/kg/injection, schedule: Q04DX003 (ip), vehicle: Klucel (hydroxypropylcellulose) (HPC).

On to `O=C(O)CCC1(c2ccccc2)CCCC1=O` (configuration not stated), for which the T/C runs as follows: (dose: 0.39 mg/kg/injection, schedule: Q01DX009 (ip), vehicle: water) 95 % of control; (dose: 0.39 mg/kg/injection, schedule: Q04DX003 (ip), vehicle: water) 104 % of control; (dose: 0.78 mg/kg/injection, schedule: Q01DX009 (ip), vehicle: water) 87 % of control and 122 % of control; (dose: 0.78 mg/kg/injection, schedule: Q04DX003 (ip), vehicle: water) 100 % of control; (dose: 1.56 mg/kg/injection, schedule: Q01DX009 (ip), vehicle: water) 101 % of control and 103 % of control; (dose: 1.56 mg/kg/injection, schedule: Q04DX003 (ip), vehicle: water) 97 % of control. Moreover, the T/C by setting is: (dose: 3.12 mg/kg/injection, schedule: Q01DX009 (ip), vehicle: water) 88 % of control; (dose: 3.12 mg/kg/injection, schedule: Q04DX003 (ip), vehicle: water) 97 % of control; (dose: 6.25 mg/kg/injection, schedule: Q01DX009 (ip), vehicle: water) 87 % of control and 101 % of control; (dose: 12.5 mg/kg/injection, schedule: Q01DX009 (ip), vehicle: water) 97 % of control; (dose: 50.0 mg/kg/injection, schedule: Q01DX009 (ip), vehicle: water) 87 % of control.

For the compound `N#Cc1c(SCc2ccc(Cl)cc2)nsc1Nc1ccc(Cl)cc1`, the T/C under setting [1] is 108 % of control.

For the compound `CC1(C)N=C(N)N=C(N)N1c1cccc(CCCCOc2ccccc2)c1`, the T/C reads like this: (dose: 8.0 mg/kg/injection, schedule: Q01DX009 (ip), vehicle: saline with Tween-80) 150 % of control; (dose: 12.0 mg/kg/injection, schedule: Q01DX009 (ip), vehicle: saline with Tween-80) 150 % of control; (dose: 18.0 mg/kg/injection, schedule: Q01DX009 (ip), vehicle: saline with Tween-80) 170 % of control.

Regarding `O=C(N/N=C\c1c(Cl)cccc1Cl)c1ccccc1`, the T/C reads like this: (dose: 50.0 mg/kg/injection, schedule: Q04DX003 (ip), vehicle: acetone) 113 % of control; (dose: 100.0 mg/kg/injection, schedule: Q04DX003 (ip), vehicle: acetone) 95 % of control; (dose: 200.0 mg/kg/injection, schedule: Q04DX003 (ip), vehicle: acetone) 90 % of control.

As for `COCCCn1c(C(Cl)(Cl)Cl)nn2c(=O)c3ccccc3nc2c1=O`, the T/C under setting [2] is 87 % of control and the T/C under setting [3] is 90 % of control.

For `CCC(=O)O[C@H]1CC[C@H]2[C@@H]3C[C@H](F)C4=CC(=O)CC[C@]4(C)[C@H]3CC[C@]12C`, the T/C runs as follows: under setting [4], 95 % of control; under setting [5], 95 % of control; (dose: 400.0 mg/kg/injection, schedule: Q01DX009 (ip), vehicle: saline sonified) 109 % of control; under setting [6], 109 % of control.

As for `Cc1ccc(N2C(=O)CC(Sc3ccccc3N)C2=O)cc1Cl` (configuration not stated), the T/C reads like this: under setting [2], 110 % of control; under setting [4], 95 % of control; under setting [3], 90 % of control; under setting [5], 109 % of control; (dose: 400.0 mg/kg/injection, schedule: Q01DX009 (ip), vehicle: saline with Tween-80) 105 % of control; under setting [6], 109 % of control.

Consider `CCCCCCCCCCCC(=O)N(C)C`, for which the T/C is 105 % of control under setting [7]; 104 % of control under setting [8]; 105 % of control under setting [9]; 100 % of control under setting [10]; 100 % of control under setting [11].

On to `Cc1ccc(-c2nc3sccn3c2/C=N/NC(N)=S)cc1`, for which the T/C reads like this: under setting [12], 100 % of control; under setting [13], 95 % of control.

With `O=C(O)c1cc(N=Nc2ccccc2)ccc1O`, the T/C is, setting by setting: (dose: 50.0 mg/kg/injection, schedule: Q04DX003 (ip), vehicle: saline with Tween-80) 104 % of control; under setting [4], 100 % of control.

Regarding `O=C1NC(=O)C(c2ccc(C(F)(F)F)cc2)(c2ccc(C(F)(F)F)cc2)N1`, the T/C was 104 % of control under setting [14]; 90 % of control under setting [15]; 113 % of control under setting [1]; 90 % of control under setting [4]; 90 % of control under setting [5]; 104 % of control under setting [6].

With `CCCCCCCCCCOc1ccc(C=O)c(OC)c1`, the T/C under setting [12] is 100 % of control; the T/C (dose: 200.0 mg/kg/injection, schedule: Q01DX001 (ip), vehicle: Klucel (hydroxypropylcellulose) (HPC)) is 100 % of control; the T/C under setting [13] is 104 % of control.

For the compound `ON=C(Cc1ccccc1)Cc1ccccc1`, the T/C is, setting by setting: under setting [4], 100 % of control; under setting [5], 109 % of control; under setting [6], 109 % of control.

For `CCN(CC)CC(C)Nc1ccc(C)c2sc3ccccc3c(=O)c12` (configuration not stated), the T/C (dose: 33.0 mg/kg/injection, schedule: Q04DX003 (ip), vehicle: saline sonified) was 118 % of control; the T/C (dose: 44.0 mg/kg/injection, schedule: Q01DX009 (ip), vehicle: saline) is 159 % of control; the T/C (dose: 66.0 mg/kg/injection, schedule: Q01DX009 (ip), vehicle: saline) was 200 % of control and 209 % of control; the T/C (dose: 100.0 mg/kg/injection, schedule: Q01DX009 (ip), vehicle: saline) is 190 % of control; the T/C (dose: 112.5 mg/kg/injection, schedule: Q04DX003 (ip), vehicle: saline sonified) was 154 % of control; the T/C (dose: 300.0 mg/kg/injection, schedule: Q04DX003 (ip), vehicle: saline sonified) is 163 % of control.

With `Cn1nc(-c2ccccc2)nc1[N+](=O)[O-]`, the T/C reads like this: under setting [14], 114 % of control; under setting [15], 97 % of control; under setting [1], 93 % of control; under setting [2], 99 % of control.

Consider `N#CS/C=C\C(N)=O`, for which the T/C is 100 % of control (dose: 1.5 mg/kg/injection, schedule: Q01DX009 (ip), vehicle: Klucel (hydroxypropylcellulose) (HPC)); 95 % of control (dose: 1.5 mg/kg/injection, schedule: Q04DX003 (ip), vehicle: Klucel (hydroxypropylcellulose) (HPC)); 91 % of control under setting [16]; 95 % of control (dose: 3.0 mg/kg/injection, schedule: Q04DX003 (ip), vehicle: Klucel (hydroxypropylcellulose) (HPC)); 89 % of control and 91 % of control under setting [17]; 100 % of control (dose: 6.0 mg/kg/injection, schedule: Q04DX003 (ip), vehicle: Klucel (hydroxypropylcellulose) (HPC)). The T/C was 90 % of control under setting [18] and 100 % of control under setting [19].

For `CC1(C)Oc2nc(N)nc(N)c2C1c1ccc(Cl)cc1` (configuration not stated), the T/C by setting is: under setting [8], 104 % of control; under setting [10], 100 % of control; under setting [11], 95 % of control.

Regarding `CCOC(=O)NCNC(=O)OCC`, the T/C (dose: 100.0 mg/kg/injection, schedule: Q04DX003 (ip), vehicle: saline sonified) was 100 % of control; the T/C (dose: 200.0 mg/kg/injection, schedule: Q04DX003 (ip), vehicle: saline sonified) is 108 % of control; the T/C (dose: 400.0 mg/kg/injection, schedule: Q04DX003 (ip), vehicle: saline sonified) is 108 % of control.

As to `c1ccc(CSSCc2ccccc2)cc1`, the T/C was 104 % of control (dose: 75.0 mg/kg/injection, schedule: Q01DX009 (ip), vehicle: Klucel (hydroxypropylcellulose) (HPC)); 90 % of control under setting [7]; 100 % of control under setting [8]; 100 % of control (dose: 150.0 mg/kg/injection, schedule: Q01DX009 (ip), vehicle: Klucel (hydroxypropylcellulose) (HPC)); 86 % of control under setting [9]; 95 % of control under setting [10]. Moreover, the T/C is, setting by setting: (dose: 300.0 mg/kg/injection, schedule: Q01DX009 (ip), vehicle: Klucel (hydroxypropylcellulose) (HPC)) 90 % of control; under setting [11], 95 % of control.

On to `O=C1C=C(Cl)C(=O)C(Cl)=C1`, for which the T/C by setting is: under setting [16], 100 % of control; under setting [17], 87 % of control; under setting [18], 95 % of control; under setting [19], 100 % of control.
